Experimental data as given in PubChem BioAssay AID248 (DTP/NCI, 2004).
Values joined by “and” are separate entries in the source; they are usually repeats but may differ in a detail not shown here. Equal entries are not always repeated. Toxic doses and inconclusive results are not listed.

Tested on: L1210 leukemia ip in BDF1 mice, survival T/C
Assay: NCI In Vivo Anticancer Drug Screen. Data for tumor model L1210 Leukemia (intraperitoneal) in B6D2F1 (BDF1) mice
Conditions: endpoint: mean survival time, higher = longer survival
How it was run: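 Survival endpoint. Drug-treated group vs vehicle group, expressed as T divided by C. Tumor passaged by transplantation.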

## [N-]=[N+]=CC(=O)NCC(=O)NN
dose: 50.0 mg/kg/injection, schedule: Q01DX Z (sc), vehicle: steriod suspending solution
  T/C: 101 % of control
dose: 50.0 mg/kg/injection, schedule: Q02DX Z (ip), vehicle: saline
  T/C: 102 % of control
dose: 50.0 mg/kg/injection, schedule: Q03DX Z (ip), vehicle: saline
  T/C: 101 % of control
dose: 100.0 mg/kg/injection, schedule: Q01DX001 (ip), vehicle: saline
  T/C: 108 % of control
dose: 100.0 mg/kg/injection, schedule: Q01DX005 (ip), vehicle: other
  T/C: 114 % of control
dose: 100.0 mg/kg/injection, schedule: Q01DX009 (ip), vehicle: other
  T/C: 115 % of control
dose: 100.0 mg/kg/injection, schedule: Q01DX009 (ip), vehicle: saline
  T/C: 119 % of control
dose: 100.0 mg/kg/injection, schedule: Q01DX Z (sc), vehicle: steriod suspending solution
  T/C: 101 % of control
dose: 100.0 mg/kg/injection, schedule: Q02DX Z (ip), vehicle: saline
  T/C: 108 % of control
dose: 100.0 mg/kg/injection, schedule: Q03DX Z (ip), vehicle: saline
  T/C: 108 % of control
dose: 100.0 mg/kg/injection, schedule: Q## X008 (ip), vehicle: water
  T/C: 98 % of control
dose: 125.0 mg/kg/injection, schedule: Q01DX006 (iv), vehicle: saline
  T/C: 98 % of control
dose: 125.0 mg/kg/injection, schedule: Q01DX009 (ip), vehicle: other
  T/C: 118 % of control
dose: 125.0 mg/kg/injection, schedule: Q01DX009 (sc), vehicle: other
  T/C: 100 % of control
dose: 125.0 mg/kg/injection, schedule: Q01DX017 (ip), vehicle: saline
  T/C: 121 % of control
dose: 125.0 mg/kg/injection, schedule: Q01DX Z (ip), vehicle: other
  T/C: 116 % of control
dose: 200.0 mg/kg/injection, schedule: Q01DX001 (ip), vehicle: saline
  T/C: 110 % of control
dose: 200.0 mg/kg/injection, schedule: Q01DX Z (ip), vehicle: water
  T/C: 124 % of control
dose: 200.0 mg/kg/injection, schedule: Q01DX Z (sc), vehicle: steriod suspending solution
  T/C: 98 % of control
dose: 200.0 mg/kg/injection, schedule: Q03DX Z (ip), vehicle: saline
  T/C: 154 % of control
dose: 200.0 mg/kg/injection, schedule: Q## X008 (ip), vehicle: water
  T/C: 98 % of control
dose: 225.0 mg/kg/injection, schedule: Q01DX Z (ip), vehicle: saline
  T/C: 124 % of control
dose: 225.0 mg/kg/injection, schedule: Q01DX Z (ip), vehicle: water
  T/C: 121 % of control
dose: 250.0 mg/kg/injection, schedule: Q01DX006 (iv), vehicle: saline
  T/C: 106 % of control
dose: 250.0 mg/kg/injection, schedule: Q01DX009 (ip), vehicle: other
  T/C: 156 % of control
dose: 250.0 mg/kg/injection, schedule: Q01DX009 (sc), vehicle: other
  T/C: 108 % of control
dose: 250.0 mg/kg/injection, schedule: Q01DX017 (ip), vehicle: saline
  T/C: 124 % of control
dose: 250.0 mg/kg/injection, schedule: Q01DX Z (ip), vehicle: other
  T/C: 123 % of control
dose: 250.0 mg/kg/injection, schedule: Q02DX005 (ip), vehicle: saline
  T/C: 121 % of control
dose: 250.0 mg/kg/injection, schedule: Q04DX003 (ip), vehicle: saline
  T/C: 110 % of control
dose: 250.0 mg/kg/injection, schedule: Q08DX002 (ip), vehicle: other
  T/C: 112 % of control
dose: 250.0 mg/kg/injection, schedule: Q## X005 (ip), vehicle: saline
  T/C: 111 % of control
dose: 300.0 mg/kg/injection, schedule: Q01DX009 (sc), vehicle: other
  T/C: 118 % of control
dose: 375.0 mg/kg/injection, schedule: Q01DX Z (ip), vehicle: other
  T/C: 160 % of control
dose: 400.0 mg/kg/injection, schedule: Q01DX001 (ip), vehicle: saline
  T/C: 106 % of control
dose: 400.0 mg/kg/injection, schedule: Q01DX005 (ip), vehicle: other
  T/C: 150 % of control
dose: 400.0 mg/kg/injection, schedule: Q01DX009 (ip), vehicle: saline
  T/C: 156 % of control
dose: 400.0 mg/kg/injection, schedule: Q01DX Z (im), vehicle: other
  T/C: 112 % of control
dose: 400.0 mg/kg/injection, schedule: Q01DX Z (ip), vehicle: other
  T/C: 157 % of control
dose: 400.0 mg/kg/injection, schedule: Q01DX Z (oral), vehicle: other
  T/C: 102 % of control
dose: 400.0 mg/kg/injection, schedule: Q01DX Z (oral), vehicle: saline
  T/C: 116 % of control
dose: 400.0 mg/kg/injection, schedule: Q## X008 (ip), vehicle: water
  T/C: 103 % of control
dose: 500.0 mg/kg/injection, schedule: Q01DX001 (ip), vehicle: saline
  T/C: 111 % of control and 117 % of control
dose: 500.0 mg/kg/injection, schedule: Q01DX006 (iv), vehicle: saline
  T/C: 110 % of control
dose: 500.0 mg/kg/injection, schedule: Q01DX009 (sc), vehicle: other
  T/C: 118 % of control
dose: 500.0 mg/kg/injection, schedule: Q01DX Z (ip), vehicle: other
  T/C: 118 % of control and 124 % of control
dose: 500.0 mg/kg/injection, schedule: Q01DX Z (ip), vehicle: water
  T/C: 90 % of control
dose: 500.0 mg/kg/injection, schedule: Q## X005 (ip), vehicle: saline
  T/C: 114 % of control
dose: 500.0 mg/kg/injection, schedule: Q## X024 (ip), vehicle: water
  T/C: 112 % of control
dose: 600.0 mg/kg/injection, schedule: Q01DX009 (ip), vehicle: saline
  T/C: 117 % of control
dose: 600.0 mg/kg/injection, schedule: Q01DX Z (im), vehicle: other
  T/C: 120 % of control
dose: 600.0 mg/kg/injection, schedule: Q01DX Z (ip), vehicle: water
  T/C: 150 % of control
dose: 600.0 mg/kg/injection, schedule: Q01DX Z (sc), vehicle: other
  T/C: 115 % of control
dose: 600.0 mg/kg/injection, schedule: Q## X008 (ip), vehicle: water
  T/C: 109 % of control
dose: 750.0 mg/kg/injection, schedule: Q01DX009 (sc), vehicle: other
  T/C: 118 % of control
dose: 750.0 mg/kg/injection, schedule: Q01DX Z (ip), vehicle: other
  T/C: 123 % of control
dose: 800.0 mg/kg/injection, schedule: Q01DX Z (im), vehicle: other
  T/C: 101 % of control
dose: 800.0 mg/kg/injection, schedule: Q01DX Z (ip), vehicle: other
  T/C: 124 % of control
dose: 800.0 mg/kg/injection, schedule: Q01DX Z (oral), vehicle: other
  T/C: 117 % of control
dose: 800.0 mg/kg/injection, schedule: Q01DX Z (oral), vehicle: saline
  T/C: 122 % of control
dose: 800.0 mg/kg/injection, schedule: Q01DX Z (sc), vehicle: other
  T/C: 91 % of control
dose: 800.0 mg/kg/injection, schedule: Q02DX005 (ip), vehicle: saline
  T/C: 183 % of control
dose: 800.0 mg/kg/injection, schedule: Q02DX Z (ip), vehicle: other
  T/C: 182 % of control
dose: 800.0 mg/kg/injection, schedule: Q03DX Z (ip), vehicle: other
  T/C: 150 % of control
dose: 1000.0 mg/kg/injection, schedule: Q01DX001 (ip), vehicle: saline
  T/C: 115 % of control
dose: 1000.0 mg/kg/injection, schedule: Q01DX001 (sc), vehicle: other
  T/C: 108 % of control
dose: 1000.0 mg/kg/injection, schedule: Q01DX006 (iv), vehicle: saline
  T/C: 109 % of control
dose: 1000.0 mg/kg/injection, schedule: Q01DX Z (ip), vehicle: other
  T/C: 100 % of control
dose: 1000.0 mg/kg/injection, schedule: Q02DX009 (ip), vehicle: saline
  T/C: 119 % of control
dose: 1000.0 mg/kg/injection, schedule: Q04DX003 (ip), vehicle: other
  T/C: 162 % of control
dose: 1000.0 mg/kg/injection, schedule: Q04DX003 (ip), vehicle: saline
  T/C: 156 % of control
dose: 1000.0 mg/kg/injection, schedule: Q## X005 (ip), vehicle: saline
  T/C: 158 % of control
dose: 1200.0 mg/kg/injection, schedule: Q02DX Z (ip), vehicle: other
  T/C: 98 % of control
dose: 1200.0 mg/kg/injection, schedule: Q03DX Z (ip), vehicle: other
  T/C: 156 % of control
dose: 1250.0 mg/kg/injection, schedule: Q03HX016 (ip), vehicle: saline
  T/C: 105 % of control
dose: 1500.0 mg/kg/injection, schedule: Q01DX001 (ip), vehicle: other
  T/C: 150 % of control
dose: 1500.0 mg/kg/injection, schedule: Q01DX001 (ip), vehicle: saline
  T/C: 150 % of control
dose: 1500.0 mg/kg/injection, schedule: Q01DX001 (sc), vehicle: other
  T/C: 107 % of control
dose: 1500.0 mg/kg/injection, schedule: Q03HX016 (ip), vehicle: saline
  T/C: 96 % of control
dose: 1500.0 mg/kg/injection, schedule: Q04DX003 (ip), vehicle: saline
  T/C: 180 % of control
dose: 1500.0 mg/kg/injection, schedule: Q08DX002 (ip), vehicle: saline
  T/C: 164 % of control
dose: 1500.0 mg/kg/injection, schedule: Q## X024 (ip), vehicle: water
  T/C: 154 % of control
dose: 1600.0 mg/kg/injection, schedule: Q01DX Z (ip), vehicle: other
  T/C: 150 % of control
dose: 1750.0 mg/kg/injection, schedule: Q03HX016 (ip), vehicle: saline
  T/C: 102 % of control
dose: 2000.0 mg/kg/injection, schedule: Q01DX001 (ip), vehicle: other
  T/C: 168 % of control
dose: 2000.0 mg/kg/injection, schedule: Q01DX001 (sc), vehicle: other
  T/C: 118 % of control
dose: 2000.0 mg/kg/injection, schedule: Q03HX016 (ip), vehicle: saline
  T/C: 111 % of control
dose: 2000.0 mg/kg/injection, schedule: Q## X005 (ip), vehicle: saline
  T/C: 104 % of control
